Here are results for one compound from patent US8957056B2, “Migrastatin analogs in the treatment of cancer” (Sloan-Kettering Instiute for Cancer Research, priority 2004, dated 2015).

Like-named read-outs stand apart in the source and are kept apart here.

The test system of data set [1] is HUVEC. Description: Tube formation assay. Format: cell-based, human. Particulars: HUVEC on matrigel, 16-18 h, tested concentrations 200, 100, 50, 25, 10 μM. As for the experimental part:
A protocol was designed based on the instructions from the provider (BD Bioscience, San Jose, Calif.). Briefly, wells of a 48 well culture dish were covert with 150 μL matrigel and the matrigel was gelatinized for 30 min at 37° C. A 80-90% confluent HUVEC (BD Bioscience, San Jose, Calif.) culture was trypsin treated, the detached cells were collected by centrifugation and resuspended in EGM-2 media (BD Bioscience, San Jose, Calif.). Cell concentration was adjusted to 100.000 cells/mL. 400 μL of the cell suspension were filled in the matrigel coated wells, and a solution of the inhibitor was added to the intended final concentration. The plates were incubated at 37° C. with 5% CO2 for 16-18 h. Media was removed, and the matrigel surface was washed twice with 500 μL PBS before cells were labeled with 250 μL 8 μM Calcein AM (Pierce, Rockford, Ill.) in PBS for 30 min at 37° C. After two additional washing steps (500 μL PBS) cells were visualized under an inverted microscope. Fluorescence was excited at 488 nm and recorded at 538 nm. The minimum effect concentration was defined as the minimal inhibitor concentration that caused a definite disturbance of the complexity of the formed tube network.

Data set [2] deals with adherent cells (e.g. KYSE-520 cells). Description: Wound healing (scratch) assay, preliminary (Table 2). Format: cell-based. The note with it: 28 to 30 h, tested concentrations 200, 100, 50, 25, 10 μM. On the procedure:
The wound healing assay was performed based on the method described by Nakae et al. (Nakae et al., J. Antibiotics (2000), 53, 1130-1136). Briefly, adherent cells were grown in a suitable media to confluence (e.g. KYSE-520 cells in RPMI-1640 with 10% FBS). Cells were starved for 24 h in serum free media A scratch (ca. 0.5 mm) was applied and the cell layer was washed twice with PBS after removal of the media. Fresh, serum free media with the test compound at the desired concentration was added and the cells were incubated for 28 to 30 h at 37° C., 5% CO2. The scratch size was compared to that observed for cells exposed to 100 μM Migrastatin. Test compounds associated with a scratch size equal to or larger than that observed for cells exposed to 100 μM Migrastatin were deemed to have cell migration inhibitory activity at least equal to Migrastatin.

A short description of data set [3]: Chamber cell migration assay, preliminary (Table 3). Format: cell-based. Particulars: 36 h, tested concentrations 200, 100, 50, 25, 10 μM. On the procedure: Cells were grown in an appropriate media to 70 to 80% confluence and incubated in serum and growth factor free media for 24 h. Cells were detached by trypsin treatment, collected by centrifugation and resuspended in serum free media to a final concentration of 150,000 cells/mL. 400 μL of the cell suspension were loaded into a fibronectin coated insert for 24 well multidishes. 750 μL fully supplemented media were applied to the compartment under the insert. To both chambers the inhibitor was added at the intended concentration and the plates were incubated for 36 h at 37° C., 5% CO2. […] The resulting CyQuant assay solution was transferred to the cavities of a 96 well microtiter plate and the fluorescence signal was recorded in an appropriate reader. The CyQuant dye forms a highly fluorescent complex with DNA, thus the fluorescence signal is proportional to the number of cells that migrated through the membrane in the presence of the test compound (N^inh) A positive control (i.e., without a test compound in the growth media) was carried out according to the procedure described above, except that no test compound was added. The positive control fluorescent reading correlates with the number of cells that migrate through the membrane in the absence of inhibitor (N^+). […] The anti-migratory effect of a test compound is determined by the ratio (N^inh−N^−)/(N^+−N^−).

Data set [4] deals with mouse breast tumor cells (4T1 cells). Nature of the data set: Boyden chamber cell migration assay, 4T1. In kind it is cell-based. Particulars: Mus musculus, 4T1, read-out: IC50 value, chamber cell migration assay.
The nature of data set [5]: Mouse blood plasma stability. Particulars: test period one hour. On the procedure: The biological evaluation of the compounds (in terms of their ability to inhibit cell migration) was accomplished in a Boyden chamber cell migration assay. In this assay, mouse breast tumor cells (4T1 cells) or endothelial cells (HUVECs) are seeded on the upper chamber of a transwell insert. Growth factor-containing serum is added to the lower chamber.
In anticipation of subsequent in vivo evaluation of these compounds and others, preliminary metabolic stability studies were carried out. […] As a test of the ‘deactivation hypothesis’, the hydrolysis product of macrolactone 48 was prepared (Scheme 27) and tested for its activity against tumor cell migration.

The subject of data set [6] is six solid human tumor cell lines and four liquid cancer cell lines. Nature of the data set: Chamber cell migration, various human cancer cells (overall statements). Particulars: migration inhibition. Format: cell-based. On the procedure:
Additional evaluation was conducted in a variety of human cancer cells and xenographs (See FIGS. 4-19). […] Unexpectedly, a very high selectivity between the various tumor cell lines was detected (Table 4 and FIG. 2). […] As stated above, non-transformed human cells such as HUVEC appear to be largely more resistant to the compounds. […] This was an unforeseen discovery, especially in light of the response observed for these compounds to the 4T1 mouse breast cancer cell line (previously reported in WO 2004/087672).
Cell migrations were assayed with 8 μm of microporous 6.5-mm transwell plates (Corning). 200 μl of 2×10^5 cells in serum-free RPMI1640 medium containing 0.5% BSA were added to the upper chamber and 600 μl of medium with 10% fetal bovine serum was added to the lower chamber. […] Cells migrated to the lower wells were collected and counted for liquid tumors, solid tumors were processed as previously described.^28 Data shown are representative of at least three experiments.

In data set [7] the test system is mouse 4T1 cell. The note with it: mouse 4T1 cell proliferation; previously reported (WO 2004/087672); cited from earlier work.
For data set [8] the following is noted: reported by Imoto / Kosan; read-out: IC50 value, reported activity in a wound healing assay; cited from earlier work.

For the compound `CO[C@H]1/C=C/CC/C=C/C(=O)OC([C@H](C)C(=O)CCCC2CC(=O)NC(=O)C2)/C(C)=C\[C@@H](C)[C@@H]1O` (some centres unmarked) [Migrastatin (1), Migrastatin], the Minimum effect concentration in data set [1] and in data set [2] was 100 µM in each case. Further, the IC50 in data set [3] is 200 µM; in data set [4], 29 µM; in data set [7], 42 µM; in data set [8], 29 µM. The “metabolic stability in mouse blood plasma” value in data set [5] was “completely inert toward lactone opening”. Moreover, in data set [6], the “response of the human tumor cell lines tested” value is “did not respond well to any of the cell lines tested”.
